In patent US12410171B2, “Tropomyosin receptor kinase (TRK) degradation compounds and methods of use” (Cullgen (Shanghai), Inc., priority 2020, dated 2025):
Where two headings read alike, the source gives them in different places.

Columns and labels:
KM12 cells = experiment: KM12 cell viability (CellTiter-Glo); format: cell-based; conditions: Homo sapiens
How it was run: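 KM12 cells seeded at 5000 per well in RPMI 1640 + 10% FBS and exposed 3 days to serial dilutions (11-point 3-fold, 8-point 3-fold from 1000 nM, or 12-point 2-fold). Viability by CellTiter-Glo; IC50 from least-squares nonlinear regression.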

TPM3-TRKA fusion protein = target: T1, TPM3-TRKA fusion protein (Homo sapiens, UniProt P04629); experiment: TPM3-TRKA fusion protein levels in KM12 cells (Western blot); format: cell-based; conditions: read-out: Degradation (at 10 nM)
T1 construct: The resulted chimeric proteins always retain the kinase domain of TRK proteins; TPM3 (fusion partner, N-terminal part of tropomyosin alpha-3, P06753); endogenous in cells; host or cells: KM12 colon cancer cells; the other entry of the earlier key: TPM3 (P06753, Tropomyosin alpha-3 chain)
How it was run: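 KM12 colon cancer cells were treated with DMSO or compounds at 0.1–100 nM, 0.4–30 nM or other stated concentrations for 4, 8–16 or 16 h. RIPA lysates were BCA-normalized and resolved by SDS-PAGE. TPM3-TRKA was detected by chemiluminescent Western blot, with bands quantified by densitometry.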

[1] = 72 h, KM12 cell viability, CellTiter-Glo, three days treatment, read-out: IC50
[2] = 16 h, TPM3-TRKA degradation in KM12 cells at 10 nM compound, category of percentage degradation

T1 sequence (P04629 with tags, fused parts or gaps): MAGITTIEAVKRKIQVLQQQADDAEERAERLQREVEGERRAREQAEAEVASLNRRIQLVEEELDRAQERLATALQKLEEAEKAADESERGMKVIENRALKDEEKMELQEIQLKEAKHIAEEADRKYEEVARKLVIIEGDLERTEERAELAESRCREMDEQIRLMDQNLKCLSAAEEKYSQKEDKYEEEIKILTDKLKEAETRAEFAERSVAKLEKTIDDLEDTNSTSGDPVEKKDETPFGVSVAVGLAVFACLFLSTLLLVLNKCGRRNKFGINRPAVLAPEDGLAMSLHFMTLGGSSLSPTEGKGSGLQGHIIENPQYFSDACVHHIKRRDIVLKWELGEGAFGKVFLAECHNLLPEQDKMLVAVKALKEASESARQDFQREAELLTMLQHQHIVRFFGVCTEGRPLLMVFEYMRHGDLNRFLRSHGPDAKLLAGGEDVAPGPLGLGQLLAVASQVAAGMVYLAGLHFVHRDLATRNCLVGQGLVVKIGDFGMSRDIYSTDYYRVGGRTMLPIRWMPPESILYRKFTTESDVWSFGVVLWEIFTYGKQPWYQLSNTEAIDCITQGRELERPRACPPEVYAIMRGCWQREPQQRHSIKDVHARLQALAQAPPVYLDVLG

percent degradation of TPM3-TRKA protein at 0.01 µM (TPM3-TRKA fusion protein; [2]) [%]	SMILES	IC50 (KM12 cells; [1]) [nM]	IC50 (KM12 cells; KM12, 72 h) [nM]	percent degradation of TPM3-TRKA protein at 0.01 µM (TPM3-TRKA fusion protein; KM12, 16 h) [%]
> 80	O=C1CCC(N2C(=O)c3ccc(NCCCCC(=O)N4CCN(c5cccc(-c6cnc7ccc(N8CCC[C@@H]8c8cccc(F)c8)nn67)n5)CC4)cc3C2=O)C(=O)N1 (stereo partly drawn) [TR-115, 2-(2,6-Dioxopiperidin-3-yl)-5-((5-(4-(6-(6-((R)-2-(3-fluorophenyl)pyrrolidin-1-yl)imidazo[1,2-b]pyridazin-3-yl)pyridin-2-yl)piperazin-1-yl)-5-oxopentyl)amino) isoindoline-1,3-dione]	0.9	–	–
> 80	O=C(CN1CCN(c2cccc(-c3cnc4ccc(N5CCC[C@@H]5c5cccc(F)c5)nn34)n2)CC1)NCCNc1ccc2c(c1)C(=O)N(C1CCC(=O)NC1=O)C2=O (stereo partly drawn) [TR-130, N-(2-((2-(2,6-dioxopiperidin-3-yl)-1,3-dioxoisoindolin-5-yl]amino)ethyl)-2-(4˜ (6˜ (6-((R)-2-(3-fluorophenyl)pyrrolidin-1-yl)imidazo[1,2-b]pyridazin-3-yl)pyridin-2-yl)piperazin-1-yl)acetamide]	0.9	–	–
> 80	O=C(CN1CCN(c2cccc(-c3cnc4ccc(N5CCC[C@@H]5c5cccc(F)c5)nn34)n2)CC1)NCCOCCNc1ccc2c(c1)C(=O)N(C1CCC(=O)NC1=O)C2=O (stereo partly drawn) [TR-135, N-(2-(2-((2-(2,6-dioxopiperidin-3-yl)-1,3-dioxoisoindolin-5-yl)amino)ethoxy)ethyl)-2-(4-(6-(6-((R)-2-(3-fluorophenyl)pyrrolidin-1-yl)imidazo[1,2-b]pyridazin-3-yl)pyridin-2-yl)piperazin-1-yl)acetamide]	0.9	–	–
> 80	O=C1CCC(N2C(=O)c3ccc(NCCOCCOCCOCCOCCC(=O)N4CCN(c5ccc(C(=O)Nc6n[nH]c7ccc(Cc8cc(F)cc(F)c8)cc67)c(NC6CCOCC6)c5)CC4)cc3C2=O)C(=O)N1 (stereo not drawn) [TR-140, N-(5-(3,5-Difluorobenzyl)-1H-indazol-3-yl)-4-(4-(1-((2-(2,6-dioxopiperidin-3-yl)-1,3-dioxoisoindolin-5-yl)amino)-3,6,9,12-tetraoxapentadecan-15-oyl)piperazin-1-yl)-2˜ ((tetrahydro-2H-pyran-4-yl)amino)benzamide]	1.6	–	–
> 80	O=C1CCC(N2Cc3cc(NCC(=O)N4CCN(c5cccc(-c6cnc7ccc(N8CCC[C@@H]8c8cccc(F)c8)nn67)n5)CC4)ccc3C2=O)C(=O)N1 (stereo partly drawn) [TR-190, 3-(5-((2-(4-(6-(6-((R)-2-(3-fluorophenyl)pyrrolidin-1-yl)imidazo[1,2-b]pyridazin-3-yl)pyridin-2-yl)piperazin-1-yl)-2-oxoethyl)amino)-1-oxoisoindolin-2-yl)piperidine-2,6-dione]	8.7	–	–
50 to 80	O=C1CCC(N2C(=O)c3ccc(CCC(=O)N4CCN(c5cccc(-c6cnc7ccc(N8CCC[C@@H]8c8cccc(F)c8)nn67)n5)CC4)cc3C2=O)C(=O)N1 (stereo partly drawn) [TR-194, 2-(2,6-Dioxopiperidin-3-yl)-5-(3-(4-(6-(6-((R)-2-(3-fluorophenyl)pyrrolidin-1-yl)imidazo[1,2-b]pyridazin-3-yl)pyridin-2-yl)piperazin-1-yl)-3-oxopropyl)isoindoline-1,3-dione]	7.4	–	–
> 80	O=C1CCC(N2C(=O)c3ccc(N4CC(C(=O)N5CCN(c6cccc(-c7cnc8ccc(N9CCC[C@@H]9c9cccc(F)c9)nn78)n6)CC5)C4)cc3C2=O)C(=O)N1 (stereo partly drawn) [TR-211, 2-(2,6-dioxopiperidin-3-yl)-5-(3-(4-(6-(6-((R)-2-(3-fluorophenyl)pyrrolidin-1-yl)imidazo[1,2-b]pyridazin-3-yl)pyridin-2-yl)piperazine-1-carbonyl)azetidin-1-yl)isoindoline-1,3-dione]	2	–	–
> 80	Cn1c(=O)n(C2CCC(=O)NC2=O)c2ccc(NCCCN3CCN(c4cccc(-c5cnc6ccc(N7CCC[C@@H]7c7cccc(F)c7)nn56)n4)CC3)cc21 (stereo partly drawn) [TR-221, 3-[5-[3-[4-[6-[6-[(2R)-2-(3-fluorophenyl)pyrrolidin-1-yl]imidazo[1,2-b]pyridazin-3-yl]-2-pyridyl]piperazin-1-yl]propylamino]-3-methyl-2-oxo-benzimidazol-1-yl]piperidine-2,6-dione]	7.8	–	–
> 80	O=C1CCC(N2C(=O)c3ccc(N4CCC(CN5CCN(c6cccc(-c7cnc8ccc(N9CCC[C@@H]9c9cccc(F)c9)nn78)n6)CC5)C4)cc3C2=O)C(=O)N1 (stereo partly drawn) [TR-225, 2-(2,6-dioxopiperidin-3-yl)-5-(3-((4-(6-(6-((R)-2˜ (3-fluorophenyl)pyrrolidin-1-yl)imidazo[1,2-b]pyridazin-3-yl)pyridin-2-yl)piperazin-1-yl)methyl)pyrrolidin-1-yl)isoindoline-1,3-dione]	8.4	–	–
50 to 80	O=C1CCC(n2c(=O)n(CCN3CCN(c4cccc(-c5cnc6ccc(N7CCC[C@@H]7c7cccc(F)c7)nn56)n4)CC3)c3ccccc32)C(=O)N1 (stereo partly drawn) [TR-227, 3-(3-(2-(4-(6-(6-((R)-2-(3-Fluorophenyl)pyrrolidin-1-yl)imidazo[1,2-b]pyridazin-3-yl)pyridin-2-yl)piperazin-1-yl)ethyl)-2-oxo-2,3-dihydro-1H-benzo[d]imidazol-1-yl)piperidine-2,6-dione]	23.6	–	–
50 to 80	O=C1CCC(n2c(=O)n(CCCN3CCN(c4cccc(-c5cnc6ccc(N7CCC[C@@H]7c7cccc(F)c7)nn56)n4)CC3)c3ccccc32)C(=O)N1 (stereo partly drawn) [TR-228, 3-(3-(3-(4-(6-(6-((R)-2-(3-fluorophenyl)pyrrolidin-1-yl)imidazo[1,2-b]pyridazin-3-yl)pyridin-2-yl)piperazin-1-yl)propyl)-2-oxo-2,3-dihydro-1H-benzo[d]imidazol-1-yl)piperidine-2,6-dione]	56.3	–	–
> 80	O=C1CCC(N2C(=O)c3ccc(NC(=O)CN4CCN(c5cccc(-c6cnc7ccc(N8CCC[C@@H]8c8cccc(F)c8)nn67)n5)CC4)cc3C2=O)C(=O)N1 (stereo partly drawn) [TR-233, N-(2-(2,6-dioxopiperidin-3-yl)-1,3-dioxoisoindolin-5-yl)-2-(4-(6-(6-((R)-2-(3-fluorophenyl)pyrrolidin-1-yl)imidazo[1,2-b]pyridazin-3-yl)pyridin-2-yl)piperazin-1-yl)acetamide]	5	–	–
< 50	O=C1CCC(N2C(=O)Cc3c(NCCN4CCN(c5cccc(-c6cnc7ccc(N8CCC[C@@H]8c8cccc(F)c8)nn67)n5)CC4)cccc32)C(=O)N1 (stereo partly drawn) [TR-236, 3-(4-((2-(4-(6-(6-((R)-2-(3-Fluorophenyl)pyrrolidin-1-yl)imidazo[1,2-b]pyridazin-3-yl)pyridin-2-yl)piperazin-1-yl)ethyl)amino)-2-oxoindolin-1-yl)piperidine-2,6-dione]	99.2	–	–
> 80	O=C1CCC(N2C(=O)c3ccc(CN4CC(N5CCN(c6cccc(-c7cnc8ccc(N9CCC[C@@H]9c9cccc(F)c9)nn78)n6)CC5)C4)cc3C2=O)C(=O)N1 (stereo partly drawn) [TR-237, 2-(2,6-dioxopiperidin-3-yl)-5-((3-(4-(6-(6-((R)-2-(3-fluorophenyl)pyrrolidin-1-yl)imidazo[1,2-b]pyridazin-3-yl)pyridin-2-yl)piperazin-1-yl)azetidin-1-yl)methyl)isoindoline-1,3-dione]	138	–	–
–	Cn1c(=O)n(C2CCC(=O)NC2=O)c2cccc(C#CCN3CCN(c4cccc(-c5cnc6ccc(N7CCC[C@@H]7c7cccc(F)c7)nn56)n4)CC3)c21 (stereo partly drawn) [TR-238, 3-(4-(3-(4-(6-(6-((R)-2-(3-Fluorophenyl)pyrrolidin-1-yl)imidazo[1,2-b]pyridazin-3-yl)pyridin-2-yl)piperazin-1-yl)prop-1-yn-1-yl)-3-methyl-2-oxo-2,3-dihydro-1H-benzo[d]imidazol-1-yl)piperidine-2,6-dione]	–	16.2	> 80
> 80	Cn1c(=O)n(C2CCC(=O)NC2=O)c2cccc(C#CCCN3CCN(c4cccc(-c5cnc6ccc(N7CCC[C@@H]7c7cccc(F)c7)nn56)n4)CC3)c21 (stereo partly drawn) [TR-239, 3-(4-(4-(4-(6-(6-((R)-2-(3-Fluorophenyl)pyrrolidin-1-yl)imidazo[1,2-b]pyridazin-3-yl)pyridin-2-yl)piperazin-1-yl)but-1-yn-1-yl)-3-methyl-2-oxo-2,3-dihydro-1H-benzo[d]imidazol-1-yl)piperidine-2,6-dione]	45.9	–	–
> 80	Cn1c(=O)n(C2CCC(=O)NC2=O)c2cccc(CCCN3CCN(c4cccc(-c5cnc6ccc(N7CCC[C@@H]7c7cccc(F)c7)nn56)n4)CC3)c21 (stereo partly drawn) [TR-240, 3-(4-(3-(4-(6-(6-((R)-2-(3-fluorophenyl)pyrrolidin-1-yl)imidazo[1,2-b]pyridazin-3-yl)pyridin-2-yl)piperazin-1-yl)propyl)-3-methyl-2-oxo-2,3-dihydro-1H-benzo[d]imidazol-1-yl)piperidine-2,6-dione]	16.1	–	–
–	Cn1c(=O)n(C2CCC(=O)NC2=O)c2cccc(CCCCN3CCN(c4cccc(-c5cnc6ccc(N7CCC[C@@H]7c7cccc(F)c7)nn56)n4)CC3)c21 (stereo partly drawn) [TR-241, 3-(4-(4-(4-(6-(6-((R)-2˜ (3-fluorophenyl)pyrrolidin-1-yl)imidazo[1,2-b]pyridazin-3-yl)pyridin-2-yl)piperazin-1-yl)butyl)-3-methyl-2-oxo-2,3-dihydro-1H-benzo[d]imidazol-1-yl)piperidine-2,6-dione]	–	6.1	> 80
